Source: patent US7973061B2, “Anaplastic lymphoma kinase modulators and methods of use” (Exelixis, Inc., priority 2004, dated 2011)

target: T1, ALK (baculovirus expressed human ALK kinase domain F1098-K1410) (Homo sapiens, UniProt Q9UM73); assay: biochemical; settings: 1 μM ATP, 4 μM poly-AEKY, 12 nM ALK, 2 hours at ambient temperature; read-out: ALK IC50
T1 construct: human ALK kinase domain F1098-K1410; made in house
Summary of the method: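 Baculovirus-expressed human ALK kinase domain (F1098-K1410) was run in a luciferase-coupled chemiluminescent format, with ATP near its KM. After 2 h at ambient temperature, remaining ATP was read by luciferase-luciferin luminescence. IC50 came from 10-point dose-response curves fitted to a four-parameter equation with Hill slope.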

T1 sequence (Q9UM73 1098-1410): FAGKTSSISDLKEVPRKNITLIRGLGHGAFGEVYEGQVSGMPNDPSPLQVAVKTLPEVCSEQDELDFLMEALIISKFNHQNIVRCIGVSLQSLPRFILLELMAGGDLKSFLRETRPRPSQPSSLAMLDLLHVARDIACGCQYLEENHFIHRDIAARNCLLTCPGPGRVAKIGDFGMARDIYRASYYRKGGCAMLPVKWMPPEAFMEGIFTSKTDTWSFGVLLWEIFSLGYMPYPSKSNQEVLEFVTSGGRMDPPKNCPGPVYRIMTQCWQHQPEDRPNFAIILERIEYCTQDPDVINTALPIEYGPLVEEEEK

Row | SMILES | IC50 [nM]
1 | O=C(COc1ccc(OC(F)(F)F)cc1)NCc1nc(C(=O)N2CC[C@H]3CCCC[C@@H]3C2)cs1 [Entry 266, N-({4-[(4aR,8aS)-octahydroisoquinolin-2(1H)-ylcarbonyl]-1,3-thiazol-2-yl}methyl)-2-({4-[(trifluoromethyl)oxy]phenyl}oxy)acetamide] | 500 to 2000
2 | NCc1nc(C(=O)NCCc2ccccc2F)cs1 [Entry 305, 2-(aminomethyl)-N-[2-(2-fluorophenyl)ethyl]-1,3-thiazole-4-carboxamide] | > 2000
3 | O=C(COc1ccc(OC(F)(F)F)cc1)NCc1nc(C(=O)NCCCN2CCCC2=O)cs1 [Entry 286, N-[3-(2-oxopyrrolidin-1-yl)propyl]-2-({[({4-[(trifluoromethyl)oxy]phenyl}oxy)acetyl]amino}methyl)-1,3-thiazole-4-carboxamide] | 500 to 2000
4 | C[C@@H]1[C@@H](NC(=O)c2coc(CNC(=O)COc3ccc(OC(F)(F)F)cc3)n2)C[C@H]2C[C@@H]1C2(C)C [Entry 89, 2-({[({4-[(trifluoromethyl)oxy]phenyl}oxy)acetyl]amino}methyl)-N-[(1S,2S,3S,5R)-2,6,6-trimethylbicyclo[3.1.1]hept-3-yl]-1,3-oxazole-4-carboxamide] | 50 to 500
5 | CCN(CC)C(=O)C1CCCN(C(=O)c2csc(CNC(=O)COc3ccc(OC(F)(F)F)cc3)n2)C1 (centres unmarked) [Entry 270, N,N-diethyl-1-{[2-({[({4-[(trifluoromethyl)oxy]phenyl}oxy)acetyl]amino}methyl)-1,3-thiazol-4-yl]carbonyl}piperidine-3-carboxamide] | 500 to 2000
6 | COc1ccc(CNC(=O)c2csc(CNC(=O)COc3ccc(OC(F)(F)F)cc3)n2)cc1 [Entry 178, N-{[4-(methyloxy)phenyl]methyl}-2-({[({4-[(trifluoromethyl)oxy]phenyl}oxy)acetyl]amino}methyl)-1,3-thiazole-4-carboxamide] | 50 to 500
7 | O=C(C/C=C/c1ccccc1)NCc1nc(C(=O)NCCc2cccc(Cl)c2)cs1 [Entry 208, N-[2-(3-chlorophenyl)ethyl]-2-({[(3E)-4-phenylbut-3-enoyl]amino}methyl)-1,3-thiazole-4-carboxamide] | 50 to 500
8 | COc1cccc(CNC(=O)c2csc(CNC(=O)COc3ccc(OC(F)(F)F)cc3)n2)c1 [Entry 154, N-{[3-(methyloxy)phenyl]methyl}-2-({[({4-[(trifluoromethyl)oxy]phenyl}oxy)acetyl]amino}methyl)-1,3-thiazole-4-carboxamide] | 50 to 500
9 | O=C(COc1ccc(OC(F)(F)F)cc1)NCc1nc(C(=O)NCC(c2ccccc2)c2ccccc2)co1 [Entry 226, N-(2,2-diphenylethyl)-2-({[({4-[(trifluoromethyl)oxy]phenyl}oxy)acetyl]amino}methyl)-1,3-oxazole-4-carboxamide] | 500 to 2000
10 | CCOc1cc(CCNC(=O)c2coc(CNC(=O)COc3ccc(OC(F)(F)F)cc3)n2)ccc1OC [Entry 250, N-{2-[3-(ethyloxy)-4-(methyloxy)phenyl]ethyl}-2-({[({4-[(trifluoromethyl)oxy]phenyl}oxy)acetyl]amino}methyl)-1,3-oxazole-4-carboxamide] | 500 to 2000
11 | O=C(NCCc1cccc(Cl)c1)c1csc(CNC(=O)c2cccnc2Oc2ccc(Cl)cc2)n1 [Entry 62, N-{[4-({[2-(3-chlorophenyl)ethyl]amino}carbonyl)-1,3-thiazol-2-yl]methyl}-2-[(4-chlorophenyl)oxy]pyridine-3-carboxamide] | 50 to 500
12 | COCCNC(=O)c1csc(CNC(=O)COc2ccc(OC(F)(F)F)cc2)n1 [Entry 287, N-[2-(methyloxy)ethyl]-2-({[({4-[(trifluoromethyl)oxy]phenyl}oxy)acetyl]amino}methyl)-1,3-thiazole-4-carboxamide] | 500 to 2000
13 | O=C(COc1ccc(OC(F)(F)F)cc1)NCc1nc(C(=O)NCCN2CCOCC2)cs1 [Entry 205, N-(2-morpholin-4-ylethyl)-2-({[({4-[(trifluoromethyl)oxy]phenyl}oxy)acetyl]amino}methyl)-1,3-thiazole-4-carboxamide] | 50 to 500
14 | CSCC[C@H](NC(=O)c1ccccc1)C(=O)NCc1nc(C(=O)NCCc2cccc(Cl)c2)cs1 [Entry 221, N-{[4-({[2-(3-chlorophenyl)ethyl]amino}carbonyl)-1,3-thiazol-2-yl]methyl}-N~2~-(phenylcarbonyl)methioninamide] | 500 to 2000
15 | O=C(COc1ccc(OC(F)(F)F)cc1)NCc1nc(C(=O)N[C@@H]2CCC[C@H]2OCc2ccccc2)cs1 [Entry 218, N-{(1R,2R)-2-[(phenylmethyl)oxy]cyclopentyl}-2-({[({4-[(trifluoromethyl)oxy]phenyl}oxy)acetyl]amino}methyl)-1,3-thiazole-4-carboxamide] | 50 to 500
16 | Cc1ccccc1CNC(=O)c1coc(CNC(=O)COc2ccc(OC(F)(F)F)cc2)n1 [Entry 288, N-[(2-methylphenyl)methyl]-2-({[({4-[(trifluoromethyl)oxy]phenyl}oxy)acetyl]amino}methyl)-1,3-oxazole-4-carboxamide] | 500 to 2000
17 | O=C(COc1ccc(OC(F)(F)F)cc1)NCc1nc(C(=O)NC2CCCC2)cs1 [Entry 228, N-cyclopentyl-2-({[({4-[(trifluoromethyl)oxy]phenyl}oxy)acetyl]amino}methyl)-1,3-thiazole-4-carboxamide] | 500 to 2000
18 | CC(C)(C)OC(=O)NC1CCN(C(=O)c2csc(CNC(=O)COc3ccc(OC(F)(F)F)cc3)n2)C1 (centres unmarked) [Entry 278, 1,1-dimethylethyl (1-{[2-({[({4-[(trifluoromethyl)oxy]phenyl}oxy)acetyl]amino}methyl)-1,3-thiazol-4-yl]carbonyl}pyrrolidin-3-yl)carbamate] | 500 to 2000

Continued, values first:

Row | IC50 [nM] | SMILES
19 | 50 to 500 | COc1ccc(CNC(=O)c2csc(CNC(=O)COc3ccc(OC(F)(F)F)cc3)n2)cc1OC [Entry 187, N-{[3,4-bis(methyloxy)phenyl]methyl}-2-({[({4-[(trifluoromethyl)oxy]phenyl}oxy)acetyl]amino}methyl)-1,3-thiazole-4-carboxamide]
20 | 50 to 500 | O=C(COc1ccc(OC(F)(F)F)cc1)NCc1nc(C(=O)NCCC2=CCCCC2)co1 [Entry 176, N-(2-cyclohex-1-en-1-ylethyl)-2-({[({4-[(trifluoromethyl)oxy]phenyl}oxy)acetyl]amino}methyl)-1,3-oxazole-4-carboxamide]
21 | 50 to 500 | O=C(COc1ccc(OC(F)(F)F)cc1)NCc1nc(C(=O)NC2CCc3ccccc32)cs1 (centres unmarked) [Entry 182, N-(2,3-dihydro-1H-inden-1-yl)-2-({[({4-[(trifluoromethyl)oxy]phenyl}oxy)acetyl]amino}methyl)-1,3-thiazole-4-carboxamide]
22 | 50 to 500 | O=C(COc1ccc(OC(F)(F)F)cc1)NCc1nc(C(=O)NCCc2ccc(Br)cc2)cs1 [Entry 90, N-[2-(4-bromophenyl)ethyl]-2-({[({4-[(trifluoromethyl)oxy]phenyl}oxy)acetyl]amino}methyl)-1,3-thiazole-4-carboxamide]
23 | 50 to 500 | O=C(COc1ccc(OC(F)(F)F)cc1)NCc1nc(C(=O)NCc2ccccc2Cl)cs1 [Entry 32, N-[(2-chlorophenyl)methyl]-2-({[({4-[(trifluoromethyl)oxy]phenyl}oxy)acetyl]amino}methyl)-1,3-thiazole-4-carboxamide]
24 | 50 to 500 | O=C(COc1ccc(OC(F)(F)F)cc1)NCc1nc(C(=O)NCCc2ccncc2)cs1 [Entry 48, N-(2-pyridin-4-ylethyl)-2-({[({4-[(trifluoromethyl)oxy]phenyl}oxy)acetyl]amino}methyl)-1,3-thiazole-4-carboxamide]
25 | 50 to 500 | CC(NC(=O)c1csc(CNC(=O)COc2ccc(OC(F)(F)F)cc2)n1)c1ccc(Br)cc1 (centres unmarked) [Entry 204, N-[1-(4-bromophenyl)ethyl]-2-({[({4-[(trifluoromethyl)oxy]phenyl}oxy)acetyl]amino}methyl)-1,3-thiazole-4-carboxamide]
26 | 50 to 500 | O=C(COc1ccc(OC(F)(F)F)cc1)NCc1nc(C(=O)NC(c2ccccc2)c2ccccc2)cs1 [Entry 167, N-(diphenylmethyl)-2-({[({4-[(trifluoromethyl)oxy]phenyl}oxy)acetyl]amino}methyl)-1,3-thiazole-4-carboxamide]
27 | < 50 | Cc1ccccc1CCNC(=O)c1csc(CNC(=O)COc2ccc(OC(F)(F)F)cc2)n1 [Entry 15, N-[2-(2-methylphenyl)ethyl]-2-({[({4-[(trifluoromethyl)oxy]phenyl}oxy)acetyl]amino}methyl)-1,3-thiazole-4-carboxamide]
28 | 50 to 500 | O=C(COc1ccc(OC(F)(F)F)cc1)NCc1nc(C(=O)NCc2cccc(Cl)c2)cs1 [Entry 119, N-[(3-chlorophenyl)methyl]-2-({[({4-[(trifluoromethyl)oxy]phenyl}oxy)acetyl]amino}methyl)-1,3-thiazole-4-carboxamide]
29 | 50 to 500 | O=C(COc1ccc(OC(F)(F)F)cc1)NCc1nc(C(=O)NCc2ccc(Cl)cc2Cl)cs1 [Entry 64, N-[(2,4-dichlorophenyl)methyl]-2-({[({4-[(trifluoromethyl)oxy]phenyl}oxy)acetyl]amino}methyl)-1,3-thiazole-4-carboxamide]
30 | 50 to 500 | CCOc1ccccc1CCNC(=O)c1csc(CNC(=O)COc2ccc(OC(F)(F)F)cc2)n1 [Entry 60, N-{2-[2-(ethyloxy)phenyl]ethyl}-2-({[({4-[(trifluoromethyl)oxy]phenyl}oxy)acetyl]amino}methyl)-1,3-thiazole-4-carboxamide]
31 | 50 to 500 | NC(=O)[C@@H](Cc1ccccc1)NC(=O)c1csc(CNC(=O)COc2ccc(OC(F)(F)F)cc2)n1 [Entry 70, Nalpha-{[2-({[({4-[(trifluoromethyl)oxy]phenyl}oxy)acetyl]amino}methyl)-1,3-thiazol-4-yl]carbonyl}-D-phenylalaninamide]
32 | < 50 | CCOc1cc(CCNC(=O)c2csc(CNC(=O)COc3ccc(OC(F)(F)F)cc3)n2)ccc1OC [Entry 20, N-{2-[3-(ethyloxy)-4-(methyloxy)phenyl]ethyl}-2-({[({4-[(trifluoromethyl)oxy]phenyl}oxy)acetyl]amino}methyl)-1,3-thiazole-4-carboxamide]
